Assay results reported in patent US20240077481A1, “IMPROVED TREATMENT METHODS USING DMDS FOR THE TREATMENT OF AUTOIMMUNE DISEASES, AND BIOMARKER FOR PREDICTING AND/OR OPTIMISING SAID TREATMENT METHODS” (ARES TRADING S.A., priority 2021, published 2024).

Assays:
CD4^+ T cell = conditions: followed by a period of repopulation (Wiendl et al., 2020); cited from earlier work
B cell = conditions: followed by a period of repopulation (Wiendl et al., 2020); cited from earlier work
CD8^+ T cell = conditions: followed by a period of repopulation (Wiendl et al., 2020); cited from earlier work
CD27+ memory B cells = conditions: those with NMOSDs; cited from earlier work
CD24hiCD38hi TrB cells = conditions: those with NMOSDs; cited from earlier work
CD19^+ cell = conditions: Montalban et al., 2016; cited from earlier work
[1] = CLARITY extension, five patient groups, 3.5 mg/kg or placebo after CLARITY; cited from earlier work
plasmablast/cells = assay: Sustained decrease of plasmablast/cells under Cladribine treatment; type: in vivo, human; conditions: month 3-12
Source text: According to the instant invention, it is preferably shown that treatment of said autoimmune diseases with DMDs, preferably the treatment of MS with said DMDs and especially treatment of MS with Cladribine, in an individual induces a sustained decrease of pathological memory B cells and plasmablast/cells (>−70% and >−50% from baseline respectively) from month 1-12 and month 3-12 respectively. Repopulation of these cells resulting in a increase of numbers of memory B cells and Plasma cells to <−40% and −20% respectively will illustrate a loss of efficacy serving as a retreatment marker.

[2] = test system: plasma cell numbers in the blood; assay: Plasma cell response in MS patients vaccinated with Shingrix before cladribine treatment; type: in vivo, human; conditions: MS patients vaccinated twice with Shingrix, second dose 1 week before start of cladribine
Source text: According to the instant invention, it is preferably shown that treatment of treatment of MS with Cladribine, in an individual, reduces short lived plasmablasts and CD38^+ plasma cells and the direct effect on these plasma cell subpopulations is further supported by blood data from MS patients vaccinated twice with the Shingrix vaccine before the start of treatment with the DMD Cladribine. After the second Shingrix dose given 1 week before said start of cladribine treatment, the patient raised an acute plasma cell response, and increased plasma cell numbers in the blood to the MS patient were reduced by cladribine treatment (cite vaccination patent). These findings indicate that Cladribine is able to directly affect and reduce plasmablasts and CD38+ plasma cells which are associated with disease pathology by means of autoantibody production and direct cellular toxicity, especially when occurring within the cerebrospinal fluid. What we found in MS is also important for other diseases. There are a variety of AI & Neuroinflammatory diseases where potentially plasma cells/plasmablasts are involved in the disease activity and disease course which we deem to benefit from a treatment directly acting on plasma cells, preferably cladribine treatment. […]

Memory B cells = assay: MAGNIFY-MS peripheral blood immunophenotyping (flow cytometry); type: in vivo, human; conditions: month 1-12
plasma cells signatures = assay: Immune deconvolution signatures, CLARITY phase 3, 96 weeks; type: in vivo, human; conditions: 96 weeks after first cladribine treatment
Source text: Plasma cell signatures have weak positive, but significant, correlation with: MACT2 (Mean Active T2 Lesions), CACT2 (Cumulative Active T2 lesions), MRCULES (Mean CU Lesions), MNT1GEL (Mean New T1 Gd+ Lesions). The results are illustrated in FIG. 9.

## Alemtuzumab: other disease-modifying therapy compared in the discussion
CD4^+ T cell
  CD4^+ T cell counts: decrease
B cell
  B cell counts: decrease
CD8^+ T cell
  CD8^+ T cell counts: decrease

## Rituximab: anti-CD20 therapy targeting B cells
CD27+ memory B cells
  number of CD27+ memory B cells: lowered
CD24hiCD38hi TrB cells
  number of CD24hiCD38hi TrB cells: increased

## ocrelizumab: anti-CD20 therapy targeting B cells
CD19^+ cell
  Time of reductions in CD19^+ cell counts after treatment (as early as): 2 weeks

## Nc1nc(Cl)nc2c1ncn2[C@H]1C[C@H](O)[C@@H](CO)O1 [Cladribine]
[1]
  Relapse rates and disability between all groups: not significantly different
plasmablast/cells
  Sustained decrease of plasmablast/cells from baseline: > −50%
[2]
  Increased plasma cell numbers in the blood after second Shingrix dose: reduced
Memory B cells
  Sustained decrease of pathological memory B cells from baseline: > −70%
Plasma cells signatures
  Ratio in plasma cells signatures vs untreated control: decreased ratio
